Laboratory results from paper PMC12040169 (PLOS Biology, 2025).

Test: in vitro
Details: human, hela cells, % viability

COc1ccc2[nH]c(/C(C#N)=C\c3ccc(-c4cc(C(=O)O)ccc4Cl)o3)nc2c1 [CBK268370]
viability at 28.5 h, 10 µM: 90.4%

COc1ccccc1-c1nn2c(Cn3nnc4ccccc43)nnc2s1 [CBK268373]
viability at 28.5 h, 10 µM: 82.4%

COC(=O)Nc1ncc(CN2CCc3ccccc3C2)s1 [CBK268376]
viability at 28.5 h, 10 µM: 97.5%

O=C(COc1ccc(S(=O)(=O)N2CCOCC2)cc1)NCc1ccco1 [CBK268377]
viability at 28.5 h, 10 µM: 108%

Cc1cc(C)n(-c2nc3cc(Cl)ccc3nc2Nc2ccc3c(c2)OCO3)n1 [CBK268380]
viability at 28.5 h, 10 µM: 91.9%

CN(C)S(=O)(=O)n1cc(/C=C/c2nc(N)nc(-c3ccccc3O)n2)c2ccccc21 [CBK268386]
viability at 28.5 h, 10 µM: 119%

CC1CCN(CC(=O)Nc2sc3c(c2C(=O)NCc2ccccc2)CCCC3)CC1 [CBK268387]
viability at 28.5 h, 10 µM: 107%

CN(CC(=O)O/N=C(\N)c1ccc(I)cc1)S(=O)(=O)c1cc(Cl)ccc1Cl [CBK268389]
viability at 28.5 h, 10 µM: 89.6%

COc1ccc(-c2noc(CSc3nnc(-c4cccs4)n3-c3ccccc3)n2)cc1 [CBK268390]
viability at 28.5 h, 10 µM: 107%

CC(C)(C)c1cc(CCC(=O)NNC(=O)c2ccccc2Cl)cc(C(C)(C)C)c1O [CBK268391]
viability at 28.5 h, 10 µM: 109%

CN(C)c1ccc(Nc2nc(NCCO)c3ccccc3n2)cc1 [CBK268392C]
viability at 28.5 h, 10 µM: 87.6%

c1ccc2c(c1)nnn2Cc1nnc2sc(-c3cnccn3)nn12 [CBK268393]
viability at 28.5 h, 10 µM: 84.7%

CC(C)(C)c1ccc(C(=O)CSCC(=O)Nc2ccc3ccccc3c2)cc1 [CBK268394]
viability at 28.5 h, 10 µM: 85.2%

CC(=O)Nc1ccc(S(=O)(=O)NC2(C(F)(F)F)C(=O)Nc3c2c(=O)[nH]c(=S)n3Cc2ccco2)cc1 (centres unmarked) [CBK268395]
viability at 28.5 h, 10 µM: 96.8%

Cn1c(COc2ccccc2)nnc1SCC(=O)c1cccc([N+](=O)[O-])c1 [CBK268397]
viability at 28.5 h, 10 µM: 101%

O=C(CCS(=O)(=O)Cc1ccccc1)Nc1cc(C(F)(F)F)ccc1Cl [CBK268399]
viability at 28.5 h, 10 µM: 108%

O=C(O)c1ccc(Cl)c2c1C1C=CCC1C(c1ccc(S(=O)(=O)N3CCOCC3)cc1)N2 (centres unmarked) [CBK268401]
viability at 28.5 h, 10 µM: 108%

Oc1ccccc1Nc1nc(NC2CCCC2)c2ccccc2n1 [CBK268402C]
viability at 28.5 h, 10 µM: 84.8%

CCOc1ccccc1Nc1c([N+](=O)[O-])nn(-c2ccc(OC)cc2)[n+]1[O-] [CBK268411]
viability at 28.5 h, 10 µM: 90.2%

O=c1cc(-c2ccccc2)nc(SCc2nc(-c3cccs3)no2)[nH]1 [CBK268416]
viability at 28.5 h, 10 µM: 107%

Cc1ccc(C(=O)N(Cc2nc(-c3ccc(Cl)cc3)no2)C(C)C)cc1[N+](=O)[O-] [CBK268422]
viability at 28.5 h, 10 µM: 98.7%

CN(C)S(=O)(=O)N(CC(=O)N1CCN(Cc2ccccc2)CC1)c1ccccc1 [CBK268423]
viability at 28.5 h, 10 µM: 112%

Cn1c(Cc2ccc(Cl)cc2)nnc1SCc1nc2ccccc2c(=O)n1-c1cccc(C(F)(F)F)c1 [CBK268425]
viability at 28.5 h, 10 µM: 112%

CN(C)CCNC(=O)CSc1ccccc1 [CBK268426]
viability at 28.5 h, 10 µM: 98.6%

O=C(COc1ccc(S(=O)(=O)Nc2ccc(Cl)cc2)cc1)Nc1ccccc1F [CBK268427]
viability at 28.5 h, 10 µM: 108%

COc1ccccc1-c1nnc2sc(-c3cnccn3)nn12 [CBK268428]
viability at 28.5 h, 10 µM: 100%

O=C(NCCCc1nc2ccccc2[nH]1)c1ccccc1 [CBK268429]
viability at 28.5 h, 10 µM: 96.9%

COc1ccc(-n2nc([N+](=O)[O-])c(NCc3ccccn3)[n+]2[O-])cc1 [CBK268430]
viability at 28.5 h, 10 µM: 96.3%

CN1CCN(CC(=O)Nc2sc3c(c2C(=O)Nc2ccccc2)CCCC3)CC1 [CBK268431]
viability at 28.5 h, 10 µM: 117%

Cn1c(=O)n(C)c2cc(CNCc3cccnc3)ccc21 [CBK268432C]
viability at 28.5 h, 10 µM: 99.1%

c1ccc2c(c1)OCC(c1nn3c(Cn4cnc5ccccc54)nnc3s1)O2 (centres unmarked) [CBK268436]
viability at 28.5 h, 10 µM: 81.4%

NC(=O)c1c(NC(=O)c2cnn3cccnc23)sc2c1CCCC2 [CBK268437]
viability at 28.5 h, 10 µM: 87.8%

CN(C)c1ccc(/C=C/c2noc(-c3ccccc3O)n2)cc1 [CBK268438]
viability at 28.5 h, 10 µM: 109%

COc1ccc(NS(=O)(=O)c2ccc3c(c2)oc(=O)c2cc(S(=O)(=O)Nc4ccc(OC)cc4)ccc23)cc1 [CBK268439]
viability at 28.5 h, 10 µM: 104%

COCCNC(=O)CC1Sc2ccccc2NC1=O (centres unmarked) [CBK268443]
viability at 28.5 h, 10 µM: 98.9%

COc1ccc(S(=O)(=O)N(CC(=O)Nc2cccnc2)c2ccc(F)cc2)cc1 [CBK268445]
viability at 28.5 h, 10 µM: 86.5%

c1ccc(OCc2nn3c(Cn4cnc5ccccc54)nnc3s2)cc1 [CBK268446]
viability at 28.5 h, 10 µM: 99.2%

CS(=O)(=O)N(CC(=O)NCc1ccccn1)c1ccc(C23CC4CC(CC(C4)C2)C3)cc1 [CBK268448]
viability at 28.5 h, 10 µM: 106%

O=C(CN1CCC(Cc2ccccc2)CC1)Nc1ccc(S(=O)(=O)N2CCOCC2)cc1 [CBK268451]
viability at 28.5 h, 10 µM: 102%

O=C(CSc1nnc(-c2cccs2)n1-c1ccccc1)c1c[nH]c2ccccc12 [CBK268452]
viability at 28.5 h, 10 µM: 101%

Cn1c(CCNC(=O)NC2CCCCC2)nc2cc([N+](=O)[O-])ccc21 [CBK268453]
viability at 28.5 h, 10 µM: 95.7%

COc1cc2nc(S)n(CCc3ccc(S(N)(=O)=O)cc3)c(=O)c2cc1OC [CBK268457]
viability at 28.5 h, 10 µM: 84.4%

CC(=O)NCCc1ccc(S(=O)(=O)N2CCN(Cc3ccccc3)CC2)cc1 [CBK268458]
viability at 28.5 h, 10 µM: 94.8%

COc1ccc(S(=O)(=O)N(C)CC(=O)O)c2ccccc12 [CBK268459]
viability at 28.5 h, 10 µM: 105%

CCN1CCN(C(=O)CN(CC)S(=O)(=O)c2ccc(Cl)cc2)CC1 [CBK268461]
viability at 28.5 h, 10 µM: 88.4%

COc1ccc(OC)c(NC(=O)CN2CCC(C(N)=O)(N3CCCCC3)CC2)c1 [CBK268462]
viability at 28.5 h, 10 µM: 98.2%

Nn1c(COc2ccccc2)nnc1SCC(=O)c1ccc2c(c1)CCCC2 [CBK268466]
viability at 28.5 h, 10 µM: 100%

N#Cc1c(NC(=S)NC(=O)c2ccc(-c3cccc([N+](=O)[O-])c3)o2)sc2c1CCCC2 [CBK268471]
viability at 28.5 h, 10 µM: 92%

O=C(CSCc1nc2ccccc2[nH]1)Nc1cccc(C(F)(F)F)c1 [CBK268474]
viability at 28.5 h, 10 µM: 101%

O=C(Cc1cccc2ccccc12)Nc1cc(C(=O)O)cc(C(=O)O)c1 [CBK268475]
viability at 28.5 h, 10 µM: 94.4%

COc1ccc(S(=O)(=O)NCCSCc2cccc(C)c2)cc1Cl [CBK268477]
viability at 28.5 h, 10 µM: 100%

CC(=O)NCCc1nc2cc(NC(=O)c3cccc([N+](=O)[O-])c3)ccc2n1C [CBK268478]
viability at 28.5 h, 10 µM: 90.7%

Cc1ccc(Cl)cc1NC(=O)c1cc(NC(=O)C2CC=CCC2C(=O)O)ccc1N1CCOCC1 (centres unmarked) [CBK268479]
viability at 28.5 h, 10 µM: 99.1%

CN(C)S(=O)(=O)N(CC(=O)Nc1ccc2c(c1)OCO2)c1ccccc1 [CBK268481]
viability at 28.5 h, 10 µM: 110%

Cc1cc(C)n(-c2nc3cc(Cl)ccc3nc2NCc2ccc3c(c2)OCO3)n1 [CBK268482]
viability at 28.5 h, 10 µM: 106%

N=c1c2c(-c3ccccc3)c(-c3ccccc3)oc2ncn1CCCN1CCOCC1 [CBK268484]
viability at 28.5 h, 10 µM: 92.6%

Cc1ccc(NC(=O)CCCn2cc([N+](=O)[O-])cn2)cc1Cl [CBK268485]
viability at 28.5 h, 10 µM: 76.6%

CN1CCN(c2ccccc2NC(=O)c2ccc3ccccc3c2)CC1 [CBK268486]
viability at 28.5 h, 10 µM: 96.1%

CS(=O)(=O)N1CCc2cc(S(=O)(=O)NCCc3c[nH]c4ccccc34)ccc21 [CBK268487]
viability at 28.5 h, 10 µM: 101%

NC(=O)C1(N2CCCCC2)CCN(CC(=O)Nc2ccccc2Sc2ccccc2)CC1 [CBK268488]
viability at 28.5 h, 10 µM: 94.7%

Cc1c(C(N)=O)sc2ncn(CCc3ccccc3)c(=O)c12 [CBK268492]
viability at 28.5 h, 10 µM: 103%

Cc1ccc(-c2noc(CSc3nnc(CCc4ccccc4)n3-c3ccccc3)n2)cc1 [CBK268493]
viability at 28.5 h, 10 µM: 93.1%

CS(=O)(=O)Nc1ccccc1C(=O)NCc1ccccn1 [CBK268494]
viability at 28.5 h, 10 µM: 106%

CC1CCCCN1S(=O)(=O)c1ccc(NC(=O)CCn2cnc3ccccc3c2=O)cc1 (centres unmarked) [CBK268495]
viability at 28.5 h, 10 µM: 95.5%

O=C(CSc1nc2sc3c(c2c(=O)n1Cc1ccco1)CCC3)NCc1ccco1 [CBK268499]
viability at 28.5 h, 10 µM: 101%

O=C(CSCc1cccc2ccccc12)Nc1c[nH]c(=O)[nH]c1=O [CBK268500]
viability at 28.5 h, 10 µM: 103%

Cc1ccc(Cl)cc1NC(=O)c1cc([N+](=O)[O-])ccc1NCCN1C(=O)c2ccccc2C1=O [CBK268501]
viability at 28.5 h, 10 µM: 99.5%

COc1ccc(C)cc1S(=O)(=O)N1CCCC(C(=O)NCc2ccccn2)C1 (centres unmarked) [CBK268503]
viability at 28.5 h, 10 µM: 102%

COc1ccc(S(=O)(=O)N(CCc2ccccc2)CC(=O)O)cc1C [CBK268505]
viability at 28.5 h, 10 µM: 95%

O=C(CSCc1ccc(Br)cc1)NCC1CCCO1 (centres unmarked) [CBK268506]
viability at 28.5 h, 10 µM: 87.3%

COC(=O)c1cc(OC)c(OC)cc1NC(=S)N1CCC(C(N)=O)CC1 [CBK268507]
viability at 28.5 h, 10 µM: 93.3%

Cc1cc(C)n(-c2nc3ccccc3nc2N2CCN(S(=O)(=O)c3ccc(F)c(C)c3)CC2)n1 [CBK268508]
viability at 28.5 h, 10 µM: 91.1%

CSc1ccc(S(=O)(=O)NCCSCc2ccc(C)cc2)cc1 [CBK268510]
viability at 28.5 h, 10 µM: 104%

Cn1c(CCNC(=O)c2cccs2)nc2cc([N+](=O)[O-])ccc21 [CBK268511]
viability at 28.5 h, 10 µM: 83%

O=[N+]([O-])c1ccc2c(c1)oc1ccc(S(=O)(=O)N3CCCC3)cc12 [CBK268512]
viability at 28.5 h, 10 µM: 107%

CCOc1cc(CNCc2ccccn2)cc(Cl)c1OCC [CBK268516C]
viability at 28.5 h, 10 µM: 106%

Cc1ccc(S(=O)(=O)NCCSc2nc(-c3ccc([N+](=O)[O-])cc3)c[nH]2)cc1 [CBK268518]
viability at 28.5 h, 10 µM: 97%

Cc1ccc(C(C)C)c(OCC(=O)N2CCN(Cc3nc4cc([N+](=O)[O-])ccc4n3C)CC2)c1 [CBK268519]
viability at 28.5 h, 10 µM: 106%

CN1CCN(c2ccccc2NC(=S)NC(=O)c2ccc(N3CCCCC3)c([N+](=O)[O-])c2)CC1 [CBK268520C]
viability at 28.5 h, 10 µM: 121%

Cc1ccc(NS(=O)(=O)c2cc(C(=O)N3CCN(Cc4ccc5c(c4)OCO5)CC3)ccc2C)cc1 [CBK268521]
viability at 28.5 h, 10 µM: 102%

Cc1ccc2nc(-c3ccccc3)cc(C(=O)NCCCn3ccnc3)c2c1 [CBK268526]
viability at 28.5 h, 10 µM: 96.1%

CC(=O)Nc1c(O)nc(SCC(=O)Nc2ccc(C(C)=O)cc2)[nH]c1=O [CBK268527]
viability at 28.5 h, 10 µM: 106%

CC1CCCCN1S(=O)(=O)c1ccc(NCCC(=O)c2ccc(Cl)cc2)cc1 (centres unmarked) [CBK268529]
viability at 28.5 h, 10 µM: 113%
